Experimental data as given in doi:10.1101/125930v1 (bioRxiv, 2017).

Test system: purified E. coli protein synthesis system (PURE)
Assay: Myc-peptide translation assay
Assay type: biochemical
Settings: MALDI-TOF, assuming similar ionization properties

Compound	consecutive incorporations (in the absence of EF-P)	consecutive incorporations (with 8 μM EF-P)
N[C@@H](Cc1ccc(O)cc1)C(=O)O [^LTyr, L-tyrosine]	up to 3	up to 7
N[C@H](Cc1ccc(O)cc1)C(=O)O [^DTyr, D-tyrosine]	≤ 2	≤ 5
